A melting point compilation (Tetko et al.; mined from patent text by program, amines drawn as free bases though some values may be those of a salt)

Compound | melting point [°C]
CN(C)c1nc(N2CCOCC2)nc(-n2ccnc2)n1 | 156 to 158
Cc1ccc(C)n1CCN1CCCC1=O | 66 to 68
Fc1ccc([C@H]2CC[C@H](NCc3ccn4c(CC5CC5)nnc4c3C(F)(F)F)CC2)c(F)c1 | 110
CC(C)C[C@H]1C(=O)NC2CCC(=O)N21 (stereo partly specified) | 156 to 157
CCOC(=O)C1=C2CC=CC=C2N(C(=O)OCC)CCC1 | 60
S=c1cc(N2CCCC2)ss1 | 230
Cc1nc(N)c2nc(C)n(CCCCCSc3ccccc3)c2c1C | 181 to 183
Cn1ccc2c(C(=O)c3ccccc3O)cccc21 | 80
CCCCCOC(=O)C1CC(Br)=NN1c1ncccc1Cl (stereo unspecified) | 39 to 42
O=c1oc2c(c(O)c1C(c1ccccc1)C1CC1)CCCCC2Cc1ccccc1 (stereo unspecified) | 178 to 182
CNS(=O)(=O)c1ccc(-c2coc3ccc(-c4nnc(C)o4)cc23)cc1 | 203 to 204
O=c1oc(-c2ccccc2)nc2cccc(F)c12 | 162 to 164
COc1cccc2c1C13CCN(C(=O)C4CC4)C(C2)C1(O)CCC(=O)C3 (stereo unspecified) | 223 to 225
N#Cc1ccc2c(C#N)c3cc(C#N)ccc3c(C#N)c2c1 | 345
CCCCCCCCCCCCSCC(CO)NC(=O)CCCCCCCCCC (stereo unspecified) | 64 to 67
Cc1ccc(S(=O)(=O)N(C)c2ccc(Cl)cc2C(N)=S)cc1 | 180 to 182
CCC(NS(C)(=O)=O)P(=O)(Oc1ccccc1)Oc1ccccc1 (stereo unspecified) | 136 to 139
Nc1c(C#Cc2ccccc2)cnnc1C1CN2CCNC1CC2 (stereo unspecified) | 182 to 183
CCC(=O)N1N=C(c2ccc([N+](=O)[O-])c(C)c2)c2cc3c(cc2CC1C)OCO3 (stereo unspecified) | 172 to 175
COc1ccc(CC(C)NCC(O)c2cccc(Br)c2)cc1 (stereo unspecified) | 79 to 83
COc1cccc(-c2ccc(-c3ccc(C(=O)O)cc3)cc2-c2ccc3c(c2)C(C)(C)CCC3(C)C)c1 | 116 to 118

Compound | melting point [°C]
OC(CNC1CC1)c1cccc(Br)c1 (stereo unspecified) | 69.5 to 70.4
OC1CCCc2c(-c3ccc4nc(-c5ccc(Cl)cc5)cn4c3)cccc21 (stereo unspecified) | 218 to 220
COc1ccc(C(=O)O)c2cc(C3CCCC3)oc12 | 170 to 171
CC(=O)OCC1OC(Oc2cc(C)cc(O)c2C(C)=O)C(OC(C)=O)C(OC(C)=O)C1OC(C)=O (stereo unspecified) | 140 to 142
Cc1[nH]c(=O)n(C)c1-c1cc(C(C)(C)C)c(O)c(C(C)(C)C)c1 | 285 to 286
COC(=O)NCc1cccc(-c2ccccc2)c1 | 49 to 52
c1ccc2c(c1)CNc1ccccc1O2 | 74 to 76
O=C1c2cc(O)ccc2OCC1Cc1ccccn1 (stereo unspecified) | 150 to 151
CC(OC(=O)c1ccccc1)C(N)=S (stereo unspecified) | 100 to 101
Oc1ccc2c(c1)C13CCN(CC4CCC4)C(C2)C1CCOC3 (stereo unspecified) | 197 to 198
CS(=O)(=O)c1ccc(-c2ccc(C(F)F)n2-c2ccc(F)cc2)cc1 | 111 to 112
O=C(C=Cc1ccccc1)CC(=O)C=Cc1ccccc1 | 138
CCCCCCCCCCCCc1nnn[nH]1 | 68 to 70
CCCCCCCCCCCCn1c2cc(Br)ccc2c2ccc(Br)cc21 | 78 to 79
COc1ccc(-c2cc(-c3nc(C)cs3)c(=O)n(C)c2-c2cnccn2)cc1 | 168 to 170
Cc1ccc(CC(=O)c2sccc2S(=O)(=O)Nc2onc(C)c2Br)cc1 | 146 to 150
CC(C)(C)OC(=O)Nc1ccc(CC(=O)N2CCC(c3[nH]nc4c3C(=O)c3c(NC(=O)NN5CCOCC5)cccc3-4)CC2)cc1 | 177 to 178
COc1c(N2CCC(N(C)C)C(C)C2)c(F)c(N)c2c(=O)c(C(=O)O)cn(C3CC3)c12 (stereo unspecified) | 210
N#CCOC(=O)c1cc(SCc2ccccc2)c(Cc2ccccc2)c(S(N)(=O)=O)c1 | 190 to 192
CNC(=O)C(Cc1ccc(F)cc1)NC(=O)Nc1n[nH]c(=S)s1 (stereo unspecified) | 225 to 227

More lines, now with the values ahead:

melting point [°C] | Compound
284 to 285 | COc1ccccc1-n1c(=O)[nH]c2c(C(N)=O)nc(-c3cccc(N)c3)nc21
234 to 238 | CC(C)(O)C(=O)Nc1c(C(=O)c2ccccc2)[nH]c2cc(Cl)ccc12
207 to 209 | C#CC1N(C(=O)Oc2ccccc2)c2ccc(OCc3ccccc3[N+](=O)[O-])cc2C23OC12CCCC3O (stereo unspecified)
134 to 135 | O=CNc1cccc2ccccc12
> 250 | Cn1ncc(C(=O)N2CCC2)c1C(=O)Nc1cc2nc(-c3ccccc3)nn2cc1F
108 | COc1cc(OCCCN(C)Cc2ccc(OC)c(OC)c2)ccc1NC(=O)c1cccc2c(=O)c3cccc(F)c3[nH]c12
152 to 154 | Cc1ccc(Cl)cc1N1CCCN(C2CCC2)C1=S
184 to 191 | N#Cc1cnc(N)nc1-c1ccc(Cl)cc1C1(c2ccccc2F)OCC(CCl)O1 (stereo unspecified)
149 to 151 | CC(C)(C)OC(=O)Nc1ccc(OC2CN(C(c3ccccc3)c3ccccc3)C2)cc1
190 to 193 | COc1ccc(C(=O)Nc2ccc(Cl)c(Cl)c2)cc1NC(=S)Nc1ccc(S(N)(=O)=O)cc1
74 to 76 | CC(=O)SC(CC(=O)c1cccc(C)c1)C(=O)O (stereo unspecified)
155 to 156 | CCOc1nc2c(C)sc(C(=O)OC)c2n1Cc1ccc(-c2ccccc2C#N)cc1
166 to 168 | N#CCS(=O)(=O)c1ccc([N+](=O)[O-])cc1
144 to 145 | CC(C)(C)COc1c(-c2ccc(S(N)(=O)=O)c(F)c2)cnn(CC(F)(F)F)c1=O
77 to 79 | CC(C)SC1CCC(=O)N1 (stereo unspecified)
129 to 131 | CC(=O)N1CCN(CCSc2ccnc(CSc3nc4ccccc4[nH]3)c2C)CC1
257 to 259 | CCOC(=O)c1cn(CC)c2c(=O)c3cc(Cl)ccc3oc2c1=O
116 to 118 | CCc1nc2c(cnn2CC)c(NC2CCOCC2)c1CNC(=O)c1cccc(C(=O)NCc2cc(Cl)cc(-c3cccc(CN4CCN(C)CC4)c3)c2)c1
244 to 246 | CC1CCC(C(=O)Nc2ccc(-c3ncc(-c4ccc(NC(=O)C5CCCCCC5)cc4)[nH]3)cc2)CC1 (stereo unspecified)
56 to 59 | CC(C)NC(=O)c1c(OS(C)(=O)=O)cccc1C(=O)O

melting point [°C] | Compound
287 | CCCC1Cc2c(c(C)c(C)c3oc(C(=O)O)cc23)C1=O (stereo unspecified)
69 to 71 | CCC1(c2cccc(OC)c2)CCCC(=O)N(C)C1 (stereo unspecified)
196 to 199 | c1ccc(Nc2nc(OCC3CCCCC3)c3[nH]cnc3n2)cc1
218 to 219 | CCc1c(Sc2ccccc2)[nH]c(=O)[nH]c1=O
138 to 142 | COC(=O)c1c(-c2ccc(Cl)cc2)ccnc1Sc1nc(OC)cc(OC)n1
75 to 79 | CCCc1cccc(C2(c3ccc(OC(F)(F)F)cc3)N=C(N)N3CCCN=C32)c1 (stereo unspecified)
243 to 246 | CCOc1ccccc1CNc1nc(N)n2nc(-c3ccco3)nc2n1
> 260 | N[C@@H](CSCc1ccc(C(=O)O)cc1)C(=O)O
149 to 151 | CC(C)(C)c1cc(CCc2ccccc2NC(=O)N2CCN(Cc3ccc4c(c3)OCO4)CC2)cc(C(C)(C)C)c1O
122 to 126 | CC1(C)C(=O)N(Cc2ccccc2Cl)OC1O (stereo unspecified)
114 to 116 | CCOC(=O)c1cnn(-c2ccc(OC(F)(F)F)cc2)c1
149 to 150 | CC1(C)COc2ccc(C[C@@H](NC(=O)c3cccc4c3C=CCCC4)[C@@H](O)c3cccc(Cl)c3)cc21 (racemic)
98 | COc1ccc(C(=O)c2ccc(Cl)cc2Cl)cc1Cl
164 to 165 | COCCOCCOC(=O)C1C=Nc2c(ccc3cccnc23)C1=O (stereo unspecified)
119 to 120 | Cc1cc2c(cc1C)N(C)c1cscc1C(=O)N2CCN(C)C
59 | CCCCCCCCCCCCCCOC(=O)CCC1(CO)CCC(=O)O1 (stereo unspecified)
140 to 142 | CCNc1ccc(S(=O)c2ccccc2)cc1N (stereo unspecified)
236 to 237 | CCn1cc(C(=O)O)c(=O)c2cc(F)c(N3CCN(S(=O)(=O)c4ccc(C)cc4)CC3)c(F)c21
192 to 195 | CS(=O)(=O)c1ccc(N2C=CC(N3CCCC3)C(=O)N2c2ccc(F)cc2)cc1 (stereo unspecified)
221 | O=c1c(O)c(-c2nnc(Cc3ccc(F)cc3)o2)oc2ccccc12

melting point [°C] | Compound
44 to 46 | N#CCCCCCC(=O)c1ccc(Cl)cc1
235 to 237 | O=C(NCC12CC3CC(CC(C3)C1)C2)c1c(Cl)ccc2nc(N3CCC(C(=O)O)(c4ccccc4)CC3)ccc12
91 to 94 | CCOC(=O)C=C[C@H](Cc1ccc(-c2ccccc2)cc1)NC(=O)OC(C)(C)C
94 to 95 | CCOC(=O)c1sc(Oc2ccc(F)cc2)c2c1CCc1cnn(C)c1-2
146 to 147 | CN(O)C(=O)Nc1cccc(NC(=O)N(C)O)c1
172 to 174 | COc1cc(C2=NC(C)(C)CO2)cc(OC)c1Br
118 to 121 | O=C(O)C1(c2ccccc2)CCCCC1
121 to 123 | CCOCc1cnc2c(NC(=O)c3c(Cl)cccc3Cl)cccc2c1Cl
186 | C#CCN(c1ccc(C(=O)NC(CCCCCC(=O)O)C(=O)O)cc1)C1CCc2cc3nc(C)[nH]c(=O)c3cc21 (stereo unspecified)
183 to 185 | Cc1nc(N2CCN(Cc3ccc(F)cc3)C2=O)sc1C(=O)NCc1ccccn1
128 to 132 | CC1(C)OC(c2ccc(S(N)(=O)=O)c(Br)c2)=C(c2ccccc2)C1=O
> 250 | CC(C)c1[nH]nc2c1C(=O)c1c(NC(N)=O)cccc1-2
159 | CCOC(=O)C1=C(N)OC(C)=C(C(=O)OC)C1c1cc([N+](=O)[O-])ccc1Cl (stereo unspecified)
116 to 117 | Cc1oc(-c2ccccc2)nc1COc1ccc(CCCCc2nnn[nH]2)cc1
51 to 52 | CC(=O)COc1ccc(Cc2ccccc2)cc1
200 | Cc1cc(NC(=O)Nc2c(C)cccc2C)no1
130 to 135 | CCCN(CCC)C1Cc2cc3c(cc2C1)C(=O)N(Cc1ccccn1)C3=O
136 to 140 | CCOc1nc(Cl)nc2cscc12
86 to 88 | O=C(Cl)N1CCC1Oc1ccc(C(F)(F)F)cc1Cl (stereo unspecified)
142 to 144 | CC(C)c1ccc(F)c(C(C)C)c1NC(=O)CN1CCN(CCSc2nc3ccccc3o2)CC1
